For 35 compounds, melting point results are on record in a melting point compilation (Tetko et al.; mined from patent text by program, amines drawn as free bases though some values may be those of a salt).

In general, melting point refers to the temperature of the solid-liquid transition. Compound `O=c1cccccc1N1CCN(c2cccc(C(F)(F)F)c2)CC1` returned a melting point of 112 to 114 °C.
Then `COc1ccc([C@H](O)[C@@H](Cc2ccc(C(F)(F)F)cc2)C(=O)O)cc1` (racemic), with 113 to 114 °C; and `Cc1cccc2c1Sc1c(C)cccc1N2`, with 140 to 141 °C; and `Cc1ccc(S(=O)(=O)OC[C@H]2CN(c3ccc(N4CCSCC4)c(F)c3)C(=O)O2)cc1`, with 141 °C.
Then `COc1cc(Br)c(C(C)=O)cc1OC(C)C`, with 59 to 59.9 °C; and `CC(=O)NC1CCc2c([nH]c3ccc(Br)cc23)C1` (stereo not given), with 210 to 211 °C; and `Nc1ccc2ccc(-c3cccc(Br)c3)nc2n1`, with 165 to 166 °C.
As to `CCCCOC(=O)c1cc([N+](=O)[O-])c(Cl)c(S(N)(=O)=O)c1`, the melting point was in the range of 140 to 141 °C.
`COc1ccccc1-n1c(=O)[nH]c2c(C(N)=O)nc(N[C@@H]3CCNC3)nc21`: the melting point was greater than 400 °C.
The result for `CN1CCN(Cc2cc(-c3ccc4c(c3)CCO4)nn(Cc3ccc(F)cc3)c2=O)CC1` reads 179 to 180 °C.
The result for `Cc1nc(Cl)c([N+](=O)[O-])c(Cl)n1` reads 42 to 44 °C; that for `Cn1nc2c(-c3ccc(Cl)cc3Cl)cccc2c1C=CC#N`, 258 to 259 °C.
In the case of `CCOC(=O)C1=C(CN2C(=O)c3ccccc3C2=O)NC(CN2C(=O)c3ccccc3C2=O)=C(C(=O)OCC)C1c1ccccc1Cl`, the melting point is 162 to 164 °C.
For the compound `COC(=O)c1cccc(-c2noc(C)n2)c1`, the melting point amounted to 81 °C.
`COc1cc(Nc2c(C#N)cnc3cc(OCCN4CCN(C)CC4)c(OC)cc23)c(Cl)cc1Cl` gave a melting point of 165 to 167 °C.
`NS(=O)(=O)c1ccc(-c2cn(-c3nc(-c4ccc(F)c(F)c4)cc(C(F)(F)F)n3)cn2)s1` returned a melting point of 228 °C.
Regarding `O=C(C(=O)N1CCCCC1)C(Cl)Cl`, the melting point is less than 50 °C.
As for `Nc1ccccc1C(=O)c1ccc(Br)cc1`, the melting point was in the range of 104 to 106 °C.
With `O=C(O)c1snnc1C1CC1`, the melting point fell in the range of 158 to 159 °C.
`CC(C)c1n[nH]c2c(Nc3cccc(Cl)c3)nc(Cl)nc12` registered a melting point of 257 to 259 °C.
Then `CC(C)(C)OC(=O)NCCc1ccnc(C#N)c1`, with 70.5 to 71.2 °C; and `O=C(O)C1Cc2c(cccc2-c2ccccc2)CN1C(=O)C(c1ccccc1)c1ccccc1` (stereo not given), with 216 to 221 °C; and `COC(=O)[C@H](Cc1ccc(-c2c(C)cc(C(F)(F)F)n(C)c2=O)cc1)NC(=O)c1c(Cl)cccc1Cl`, with 170 to 173 °C.
Take `N#Cc1cnn2c(-c3cccc(F)c3)ccnc12`: the melting point was in the range of 222 to 224 °C.
The compound `CCCCc1nc2ccc(C3=NN4CCCC4C3)cc2c(=O)n1Cc1ccc(-c2ccccc2-c2nnn[nH]2)cc1` (stereo not given) displayed a melting point of 126 °C.
The compound `O=C(O)c1c(Cl)c(Cl)cc([N+](=O)[O-])c1Cl` came in with a melting point of 149 to 151 °C.
`CC1Oc2ccc(C3=NNC(=O)CC3)cc2N(C)C1=O` (stereo not given): the melting point is 210 to 211 °C.
Compound `O=C(O)c1cccc(-c2ccccc2F)c1` showed a melting point of 147 to 148 °C.
`Clc1ccc(-c2cc3ncnc(Nc4ccc5[nH]ccc5c4)c3s2)cc1` returned a melting point of 190 to 210 °C.
Compound `Nc1ncc(-c2ccc(F)c(Cl)c2)nc1C(=O)Nc1cccnc1` registered a melting point of 236 to 238 °C.
`O=C1c2cccc(O)c2C(=O)N1CC(=O)N1c2ccccc2N(Cc2ccccc2)C(=O)[C@H]2CCC[C@H]21` (relative stereo) registered a melting point of 272 °C.
The result for `Cc1ccc2nc(-c3cccc(Cl)c3)oc(=O)c2c1` reads 160 to 162 °C; that for `CSc1sc(-c2nc(C)no2)c2c1C(=O)CC(C)(C)C2`, 177 to 180 °C.
Then `O=C(O)COCCc1ccc(Cl)cc1`, with 75 to 77 °C; and `CC(=O)c1ccc2c(c1)S(=O)(=O)c1cc(C(C)=O)ccc1O2`, with 219 to 220 °C.
